# According to patent publication US20180340012A1, “METHODS AND CO[…] TO IMPROVING PROPERTIES OF PHARMACOLOGICAL AGENTS TARGETING NERVOUS SYSTEM” (University of Utah Research Foundation, priority 2006, published 2018):
# “Also recorded” adds a separate entry of the source. Read-outs that look alike come from different tables or passages of the source. Square brackets hold non-standard residues; d marks the D form. Ends that are not written are not given here. Peptide text beside a SMILES is read from it. * marks the point of attachment. Fmoc = O=C(OCC1c2ccccc2-c2ccccc21)*; Palmitoyl = CCCCCCCCCCCCCCCC(=O)*; Cha = N[C@@H](CC1CCCCC1)C(=O)O; AMC = Cc1cc(=O)oc2cc(N*)ccc12; Ahx = NCCCCCC(=O)O; Sar = CNCC(=O)O
# Columns and labels:
# hGalR2 = biological target: T1, hGalR2 (Homo sapiens, UniProt O43603); conditions: cited from earlier work
# T1 sequence (O43603 1-387): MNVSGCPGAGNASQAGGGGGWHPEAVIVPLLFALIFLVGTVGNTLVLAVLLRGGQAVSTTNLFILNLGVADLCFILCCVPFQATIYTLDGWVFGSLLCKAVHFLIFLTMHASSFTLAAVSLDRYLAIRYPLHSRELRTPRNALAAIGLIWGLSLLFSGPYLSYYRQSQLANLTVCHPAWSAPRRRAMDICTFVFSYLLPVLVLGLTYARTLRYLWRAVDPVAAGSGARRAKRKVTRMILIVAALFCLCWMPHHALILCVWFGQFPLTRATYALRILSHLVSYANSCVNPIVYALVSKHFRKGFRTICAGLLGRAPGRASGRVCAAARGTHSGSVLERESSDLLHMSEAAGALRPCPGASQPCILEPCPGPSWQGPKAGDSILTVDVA
# sound-induced seizures = experiment: Frings audiogenic seizure-susceptible mouse model; format: in vivo; conditions: 4 mg/kg i.p., 15-240 min; also higher dose of 12 mg/kg
# Method: The two modified galanin analogs (GAL-BBB1 and GAL-BBB2) were administered i.p. to a group of Frings audiogenic seizure susceptible mice in a dose of 4 mg/kg. At various times after administration (i.e., 15, 30, 60, 120, and 240 min) each mouse was placed into a cylindrical test chamber fitted with an audio transducer and challenged with a high-intensity sound stimulus (110 dB, 11 KHz for 20 sec). Animals not displaying tonic hind-limb extension were considered protected. […] In a subsequent study, anticonvulsant efficacy was quantitated at the time to peak effect (i.e., 1 h) in a dose-response study.
# The ability of individual modified analogs to prevent seizures induced by sound in the AGS-susceptible Frings mouse model can be assessed at the time of peak effect (White et al., 1992). For this test, individual mice are placed into a plexiglass cylinder (diameter, 15 cm; height, 18 cm) fitted with an audio transducer (Model AS-ZC; FET Research and Development, Salt Lake City, Utah), and exposed to a sound stimulus of 110 decibels (11 KHz) delivered for 20 seconds. Sound-induced seizures are characterized by wild running followed by loss of righting reflex with forelimb and hindlimb tonic extension. Mice not displaying hindlimb tonic extension are considered protected.
# At various times after administration (i.e., 15, 30, 60, 120, and 240 min) each mouse was placed into a cylindrical test chamber fitted with an audio transducer and challenged with a high-intensity sound stimulus (110 dB, 11 KHz for 20 sec).
# [1] = test system: seizures (6 Hz limbic seizure model); conditions: 4 mg/kg, i.p.
# 6 Hz limbic seizures = experiment: 6 Hz limbic (psychomotor) seizure test; format: in vivo, CF-1 mice; conditions: for % Protection at 1 hour: model not printed at tables, ED50s of same analogs called 6 Hz model; for dose in parentheses in Table 14 (ED50): not labelled in table
# Excerpt: Mice not displaying limbic seizures were considered protected.
# [2] = Toxicity (motor impairment) noted in the SAR screen; format: in vivo, mice; conditions: 4 mg/kg, i.p.
# Excerpt: Minimal toxicity will be identified in mice by the rotarod procedure (Dunham and Miya, 1957). When a mouse is placed on a 1-inch knurled rod that rotates at a speed of 6 r.p.m., the animal can maintain its equilibrium for long periods of time. The animal is considered toxic if it falls off this rotating rod three times during a 1-minute period.
# SAR studies have been carried out in an effort to better understand structural determinants of its activity following systemic administration. […] Presence of the Lys-palm residue was insufficient to produce any observable anticonvulsant activity.
# galanin receptors = conditions: truncation of GAL(1-16) fragment; read-out: KD towards galanin receptors; cited from earlier work
# [3] = test system: formalin-induced paw licking; experiment: Mouse formalin test; format: in vivo; conditions: for Active at (flat phase II): mouse formalin assay of inflammatory pain
# Method: An injection of 0.5% formalin is made into the planter region of a mouse right hind paw. This elicits a distinct biphasic behavioral profile characterized by the mouse licking the affected paw. Immediately following the injection the mouse licks the paw for about 10 minutes. This is phase 1 (acute) and is followed by a brief latent period where there is little behavioral activity. A more prolonged period of about 20 to 30 minutes of paw licking ensues which constitutes phase 2 (inflammatory).
# Prior to the administration of the active peptide, drug or vehicle each mouse undergoes a 15-minute conditioning period in one of several 6″ tall plexiglass observation tubes (4″ diameter) that are placed in front of a mirror. […] One hour after treatment, formalin was injected sub-dermally (20 μl; 27 gauge needle) into the plantar surface of the right hind foot. The bevel of the needle is placed facing down toward the skin surface. Following the injection of the formalin each animal is observed for first 2 minutes of each 5 minute epoch for a total of 45 minutes. The cumulative length of licking for each 2 minute time period was measured. An animal receiving the requisite volume of vehicle was alternated with each mouse given GAL-BBB2, Gal 1-16, or gabapentin. Animals were euthanized following the conclusion of the experiment.
# Area under the curve (AUC) determination was made using the GraphPad Prism Version 3.03. Total AUC is calculated for both the test and control groups for both the acute and inflammatory phases. The AUC for individual animals for each phase is also calculated and converted to percentage of total AUC of control. The average percentages and SEM for both the drug treated and control were calculated and tested for significant difference.
compound,measurement,setting,value
Cc1cc(=O)oc2cc(NC(=O)[C@H](CCCCN)NC(=O)[C@H](CC3CCCCC3)NC(=O)OCC3c4ccccc4-c4ccccc43)ccc12 [Galnon] (Fmoc-[Cha]-Lys-{AMC}),Kd,"hGalR2; Table 2, reference ligands, same values as Table 18, read-out: affinity toward galanin receptors, GalR2",24 µM
same,Kd,"hGalR2; Table 18, compiled from literature, read-out: Affinity, KD hGalR2",24 µM
Sar-Trp-Thr-Leu-Asn-Ser-Ala-Gly-Tyr-Leu-Leu-Gly-Pro-His-(Lys-palm)-Tle-NH2 [GAL-BBB1],anticonvulsant activity,sound-induced seizures,not active at any time point tested
Lys-Lys-Lys(palm)-Lys-Ahx-DPhe-Cys-Phe-DTrp-Lys-Thr-Cys-Thr-NH2,% Protection at 30 min,[1],100%
"WAGGDFSGE [DSIP, reference compound]",activity against 6 Hz (22 mA) limbic seizures,"6 Hz limbic seizures; administered directly into the ventricular space, 22 mA",effective
same,% Protection at 30 min,[1],0%
(Sar)WTLNSAGYLLGPRR(Lys-P)R [NAX 1205-3],% Protection at 1 hour,"6 Hz limbic seizures; 4 mg/kg, i.p.",100%
same,% Protection at 2 hours,"6 Hz limbic seizures; 4 mg/kg, i.p.",75%
same,% Protection at 4 hours,"6 Hz limbic seizures; 4 mg/kg, i.p.",0%
CCCCCCCCCCCCCCCC(=O)NCCCC[C@H](NC(=O)[C@H](CCCCN)NC(=O)[C@H](CCCCN)NC(=O)[C@H](CCCCN)NC(=O)[C@H](CCCCN)NC(=O)[C@H](CC(C)C)NC(=O)[C@H](CC(C)C)NC(=O)[C@H](Cc1ccc(O)cc1)NC(=O)CNC(=O)[C@H](C)NC(=O)[C@H](CO)NC(=O)[C@H](CC(N)=O)NC(=O)[C@H](CC(C)C)NC(=O)[C@@H](NC(=O)[C@H](Cc1c[nH]c2ccccc12)NC(=O)CNC)[C@@H](C)O)C(=O)N[C@@H](CCCCN)C(N)=O [NAX 1205-4] (H-[Sar]WTLNSAGYLLKKKKK(Palmitoyl)K-NH2),toxicity (motor impairment),[2],toxic
GWTLNSAGYL [Fragment 1-10],Kd,galanin receptors,25 µM
(Sar)WTLNSAGYLLGPHA(Lys-P) [306-5],"% Protection at 1, 2 and 4 hours (result in words)","6 Hz limbic seizures; 4 mg/kg, i.p.",Not active
(Sar)WTLNSAGYKK(Lys-P)K [NAX 306-3],Active at (flat phase II),[3],2.7 mg/kg (“flat phase II”)
CC(C)C[C@H](NC(=O)[C@H](CC(C)C)NC(=O)[C@H](Cc1ccc(O)cc1)NC(=O)CNC(=O)[C@H](C)NC(=O)[C@H](CO)NC(=O)[C@H](CC(N)=O)NC(=O)[C@H](CC(C)C)NC(=O)[C@@H](NC(=O)[C@H](Cc1c[nH]c2ccccc12)NC(=O)CN)[C@@H](C)O)C(=O)NCC(=O)N1CCC[C@H]1C(=O)N[C@@H](Cc1c[nH]cn1)C(=O)O [Fragment 1-14],Kd,galanin receptors,0.15 µM
[Ahx]GGWAGGDFSGE,% Protection at 30 min,[1],50%
same,% Protection after 2 hours,[1]; 2 hours,(100% after
CC(C)C[C@H](NC(=O)[C@H](CC(C)C)NC(=O)[C@H](Cc1ccc(O)cc1)NC(=O)CNC(=O)[C@H](C)NC(=O)[C@H](CO)NC(=O)[C@H](CC(N)=O)NC(=O)[C@H](CC(C)C)NC(=O)[C@@H](NC(=O)[C@H](Cc1c[nH]c2ccccc12)NC(=O)CN)[C@@H](C)O)C(=O)NCC(=O)O [Fragment 1-12],Kd,galanin receptors,3 µM
(Sar)WTLNSAGY(Ahx)KK(Lys-P)K [NAX 306-4],% Protection at 1 hour,"6 Hz limbic seizures; 4 mg/kg, i.p.",50%
same,% Protection at 2 hours,"6 Hz limbic seizures; 4 mg/kg, i.p.",0%
same,% Protection at 4 hours,"6 Hz limbic seizures; 4 mg/kg, i.p.",0%
same,ED50 in the 6 Hz model,6 Hz limbic seizures; i.p.,2.95 mg/kg
same,dose in parentheses in Table 14 (ED50),6 Hz limbic seizures; i.p.,2.95 mg/kg
same,activity in second response phase of inflammatory pain assay,[3]; 2.95 mg/kg,very active
same,Active at (flat phase II),[3],2.9 mg/kg (“flat phase II”)
"(Sar)WTLNSAGYLLGPDKDK(Lys-P)DK (XWTLNSAGYLLGPXXXX; N-terminal Sar; C-terminal (Lys-P)DK; MOD_RES 1 Xaa = MeGly; VARIANT 14, 15, 17 Xaa = D-Lys; MOD_RES 16 Xaa = Lys-palm) [NAX 1205-2]",% Protection at 1 hour,"6 Hz limbic seizures; 4 mg/kg, i.p.",100%
same,% Protection at 2 hours,"6 Hz limbic seizures; 4 mg/kg, i.p.",50%
same,% Protection at 4 hours,"6 Hz limbic seizures; 4 mg/kg, i.p.",75%
same,ED50 in the 6 Hz model,6 Hz limbic seizures; i.p.,1.2 mg/kg
same,dose in parentheses in Table 14 (ED50),6 Hz limbic seizures; i.p.,1.2 mg/kg
"CC[C@@H](C(N)=O)N1CCCC1=O [Levetiracetam, reference compound]",maximum protection against 6 Hz limbic seizures,"6 Hz limbic seizures; 6 Hz (44 mA), 1000 mg/kg, alone",≤ 50%
GWTLNSAGY [Fragment 1-9],Kd,galanin receptors,100 µM
WTLNSAGYLLGPKK(Lys-P)K (not fully specified (C-terminus)) [NAX 1205-1],% Protection at 1 hour,"6 Hz limbic seizures; 4 mg/kg, i.p.",50%
same,% Protection at 2 hours,"6 Hz limbic seizures; 4 mg/kg, i.p.",50%
same,% Protection at 4 hours,"6 Hz limbic seizures; 4 mg/kg, i.p.",0%
same,ED50 in the 6 Hz model,6 Hz limbic seizures; i.p.,5.7 mg/kg
same,dose in parentheses in Table 14 (ED50),6 Hz limbic seizures; i.p.,5.7 mg/kg
"DPhe-Cys-Phe-DTrp-Lys-Thr-Cys-Thr-NH2 [DPhe-Cys-Phe-DTrp-Lys-Thr-Cys-Thr-N2, reference compound]",% Protection at 30 min,[1],50%
CNCC(=O)N[C@@H](Cc1c[nH]c2ccccc12)C(=O)N[C@H](C(=O)N[C@@H](CC(C)C)C(=O)N[C@@H](CC(N)=O)C(=O)N[C@@H](CO)C(=O)N[C@@H](C)C(=O)NCC(=O)N[C@@H](Cc1ccc(O)cc1)C(=O)N[C@@H](CC(C)C)C(=O)N[C@@H](CC(C)C)C(=O)NCC(=O)N1CCC[C@H]1C(=O)N[C@@H](CCCCN)C(=O)N[C@@H](CCCCN)C(=O)N[C@@H](CCCCN)C(=O)N[C@@H](CCCCN)C(N)=O)[C@@H](C)O [NAX 1105-2],% Protection at 1 hour,"6 Hz limbic seizures; 4 mg/kg, i.p.",30%
same,% Protection at 2 hours,"6 Hz limbic seizures; 4 mg/kg, i.p.",0%
same,% Protection at 4 hours,"6 Hz limbic seizures; 4 mg/kg, i.p.",0%
same,ED50 in the 6 Hz model,6 Hz limbic seizures; i.p.,3.8 mg/kg
same,dose in parentheses in Table 14 (ED50),6 Hz limbic seizures; i.p.,3.7 mg/kg
same,toxicity (motor impairment),[2],toxicity (motor impairment); also recorded: toxic
